Counter-ions that a name gives are not always drawn.
What was measured:
[1] = system: H1993 cells (human non-small cell lung cancer cell line); assay: Inhibition of cell proliferation, xCelligence cell index; format: cell-based; conditions: NCI-H1993, 72 hr post compound treatment, read-out: calculated IC50
Description: (§5) For measurement of cell-substrate or cell-electrode impedance using RT-CES technology, microelectrodes having appropriate geometries are fabricated onto the bottom surfaces of microtiter plate or similar device, facing into the wells. Cells are introduced into the wells of the devices, and make contact to and attach to the electrode surfaces. The presence, absence or change of properties of cells affects the electronic and ionic passage on the electrode sensor surfaces. Measuring the impedance between or among electrodes provides important information about biological status of cells present on the sensors. When there are changes to the biological status of the cells analogue electronic readout signals are measured automatically and in real time, and are converted to digital signals for processing and for analysis. In a RT-CES system, a cell index (arbitrary representation of change in impedance) is automatically derived and provided based on measured electrode impedance values. The cell index obtained for a given well reflects: 1) how many cells are attached to the electrode surfaces in this well; 2) how well cells are attached to the electrode surfaces in this well. […]
H1993 cells (human non-small cell lung cancer cell line) were seeded into wells of 96 well E-plate devices (Roche) with an initial seeding density of 5000 cells per well and were pre-incubated in incubator under standard cell culture condition for about 24 hours. […] The cell status was monitored prior to and after the compound addition using xCelligence system (Roche). […]

[2] = system: A549 cells (human lung carcinoma cell line); assay: Inhibition of cell proliferation, RT-CES cell index; format: cell-based; conditions: 72 hr post compound treatment, read-out: calculated IC50
Description: (§1) The biological activity of compounds disclosed herein was monitored and profiled using the Real-Time Cell Electronic Sensing (RT-CES®) system from ACEA Biosciences, Inc. The RT-CES system utilizes cell-substrate impedance technology to monitor cellular behavior inside tissue culture wells in a microtiter plate format. The technology features in the integration of molecular and cell biology with microelectronics and is based on the electronic detection of biological assay process. The details of this cell electronic sensing technology and associated devices, systems and methods of use are described in U.S. Pat. No. 7,167,585; U.S. Pat. No. 7,468,255; PCT publication number WO 2004/010102; U.S. Pat. No. 7,470,533; and U.S. Pat. No. 7,459,303, each of which is incorporated herein by reference. Additional details of RT-CES technology are further disclosed in U.S. Pat. No. 7,468,255.
(§2) For measurement of cell-substrate or cell-electrode impedance using RT-CES technology, microelectrodes having appropriate geometries are fabricated onto the bottom surfaces of microtiter plate or similar device, facing into the wells. […] When there are changes to the biological status of the cells analogue electronic readout signals are measured automatically and in real time, and are converted to digital signals for processing and for analysis. In a RT-CES system, a cell index (arbitrary representation of change in impedance) is automatically derived and provided based on measured electrode impedance values. […]
(§3) To quantify cell status based on the measured cell-electrode impedance, a parameter termed Cell Index is derived. Cell Index is a quantitative measure of the status of the cells in an electrode-containing well. […]
(§4) A549 cells (human lung carcinoma cell line) were seeded into wells of 96 well E-plate devices (Roche) with an initial seeding density of 5000 cells per well and were pre-incubated in incubator under standard cell culture condition for about 24 hours. […] The cell status was monitored prior to and after the compound addition using RT-CES system (ACEA Biosciences). […]

[3] = system: A172 cells (human brain cancer cell line); assay: Inhibition of cell proliferation, xCelligence cell index; format: cell-based; conditions: A 172, 72 hr post compound treatment, read-out: calculated IC50
Description: (§6) For measurement of cell-substrate or cell-electrode impedance using RT-CES technology, microelectrodes having appropriate geometries are fabricated onto the bottom surfaces of microtiter plate or similar device, facing into the wells. Cells are introduced into the wells of the devices, and make contact to and attach to the electrode surfaces. The presence, absence or change of properties of cells affects the electronic and ionic passage on the electrode sensor surfaces. Measuring the impedance between or among electrodes provides important information about biological status of cells present on the sensors. When there are changes to the biological status of the cells analogue electronic readout signals are measured automatically and in real time, and are converted to digital signals for processing and for analysis. In a RT-CES system, a cell index (arbitrary representation of change in impedance) is automatically derived and provided based on measured electrode impedance values. […]
A172 cells (human brain cancer cell line) were seeded into wells of 96 well E-plate devices (Roche) with an initial seeding density of 5000 cells per well and were pre-incubated in incubator under standard cell culture condition for about 24 hours. […] The cell status was monitored prior to and after the compound addition using xCelligence system (Roche). […]

[4] = system: U118MG cells (human brain cancer cell line); assay: as above; format: cell-based; conditions: U-118-MG, 72 hr post compound treatment, read-out: calculated IC50
[5] = system: HT29 cells (human colon cancer cell line); assay: as above; format: cell-based; conditions: HT-29, 72 hr post compound treatment, read-out: calculated IC50
Description: as §1, §2, §3
as §4, with “HT29” for “A549”, “colon cancer” for “lung carcinoma”, “xCelligence” for “RT-CES”, “(Roche).” for “(ACEA Biosciences).”

[6] = system: SW1088 cells (human brain cancer cell line); assay: as above; format: cell-based; conditions: 72 hr post compound treatment, read-out: calculated IC50
Description: as §5
SW1088 cells (human brain cancer cell line) were seeded into wells of 96 well E-plate devices (Roche) with an initial seeding density of 5000 cells per well and were pre-incubated in incubator under standard cell culture condition for about 24 hours. […] The cell status was monitored prior to and after the compound addition using xCelligence system (Roche). […]

[7] = system: MAP-rich tubulin; assay: In vitro microtubule assembly assay; format: biochemical; conditions: absorbance at 405 nm
Method: In vitro microtubule assembly assay. Microtubule polymerization was conducted in a 96-well microtiter plate with MAP-rich tubulin and various concentrations of COMPOUND O in a buffer containing 80 mM PIPES pH 6.9, 0.5 mM EGTA, 2 mM MgCl2, 1 mM GTP, 10% glycerol and 4% (v/v) dimethyl sulfoxide (DMSO) based on the HTS-tubulin polymerization assay kit protocol (Cytoskeleton). The increase in absorbance was measured at 405 nm a Beckman Multimode DTX880 plate reader at 37° C. and recorded every 60 seconds for 30 minutes.

[8] = system: H292 cells (human pulmonary lung carcinoma cell line); assay: Inhibition of cell proliferation, xCelligence cell index; format: cell-based; conditions: NCI-H292, 72 hr post compound treatment, read-out: calculated IC50
Description: as §1, §2, §3
as §4, with “H292” for “A549”, “(human pulmonary” for “(human”, “xCelligence” for “RT-CES”, “(Roche).” for “(ACEA Biosciences).”

[9] = system: U138MG cells (human brain cancer cell line); assay: as above; format: cell-based; conditions: U138-MG, 72 hr post compound treatment, read-out: calculated IC50
Description: as §6
U138MG cells (human brain cancer cell line) were seeded into wells of 96 well E-plate devices (Roche) with an initial seeding density of 5000 cells per well and were pre-incubated in incubator under standard cell culture condition for about 24 hours. […] The cell status was monitored prior to and after the compound addition using xCelligence system (Roche). […]

Row | SMILES | IC50 [1] [nM] | IC50 [2] [nM] | IC50 [3] [nM] | IC50 [4] [nM] | IC50 [5] [nM] | IC50 [6] [nM] | effect on tubulin polymerization ([7]; 5 μM) | IC50 [8] [nM] | IC50 [9] [nM] | inhibition of tubulin polymerization compared with control sample ([7]; 5 μM) | effect on tubulin polymerization ([7]; 0.04 μM) | effect on tubulin polymerization, concentration dependence ([7]; various concentrations)
1 | CC(=O)O[C@H]1C(=O)[C@@]2(C)[C@H]([C@H](OC(=O)c3ccccc3)[C@]3(O)C[C@H](OC(=O)[C@H](O)[C@@H](NC(=O)c4ccccc4)c4ccccc4)C(C)=C1C3(C)C)[C@]1(OC(C)=O)CO[C@@H]1C[C@@H]2O [paclitaxel] | 5.12 | 5.3 | 4.46 | 12.3 | 2.52 | 13.1 | further enhanced compared to that of the negative control | 2.59 | 18.1 | – | – | –
2 | CC[C@]1(O)C[C@H]2CN(CCc3c([nH]c4ccccc34)[C@@](C(=O)OC)(c3cc4c(cc3OC)N(C=O)[C@H]3[C@@](O)(C(=O)OC)[C@H](OC(C)=O)[C@]5(CC)C=CCN6CC[C@]43[C@@H]65)C2)C1 [vincristine] | 2.43 | 61.8 | 1.3 | 4.31 | 12.7 | 4.96 | – | 2.63 | 0.641 | more than 50% | – | –
3 | CCc1ccc(Nc2nc(-c3c(C)nc4sccn34)cs2)cc1 [COMPOUND O, 2-(4-ethylphenyl)amino-4-(6-methylimidazo[2,1-b]thiazol-5-yl)-thiazole monohydrobromide] | 60.2 | 10.9 | 11.6 | 13.1 | 25.4 | 21.2 | – | 10.8 | 3.41 | – | no inhibition | inhibited in a concentration-dependent manner
